In ChEMBL document CHEMBL1201862, “PubChem BioAssay data set” (2004):
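Interpolation was linear, between the two tested concentrations surrounding the appropriate level; five concentrations were tested over 48 hours in 96-well plates. Here, GI50 denotes the concentration required for 50% inhibition of growth.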 Active and inactive are the calls of the source. Rule as the data show it: active = GI50 up to about 1.1 µM and inactive = higher.

Columns and labels:
Assay in all cases: inhibition of tumour cell growth, NCI panel, 48 h
DLD-1 = tested on: DLD-1
DMS-114 = tested on: DMS-114
HOP-18 = tested on: HOP-18
KM-20L2 = tested on: KM-20L2
RXF 631 = tested on: RXF 631
SNB-78 = tested on: SNB-78
XF498 = tested on: XF498
BT-549 = tested on: BT-549
Hs-578T = tested on: Hs-578T

Measured: GI50

NCc1cccc(O)c1O
inactive: DLD-1 90.4 µM | DMS-114 > 100 µM | HOP-18 > 100 µM | KM-20L2 > 100 µM | RXF 631 > 100 µM | SNB-78 > 100 µM | XF498 > 100 µM

COc1ccccc1C(=O)Nc1ccc(Cl)c(C(=O)OC(C)C)c1
inactive: BT-549 64.9 µM | DMS-114 19 µM | HOP-18 > 100 µM | Hs-578T > 100 µM | KM-20L2 28.6 µM | RXF 631 41.1 µM | SNB-78 42 µM | XF498 21.9 µM

CCCCNC(=O)OCC(COc1ccccc1OC)OC(=O)NCCCC (configuration not stated)
inactive: DLD-1 > 100 µM | DMS-114 78.7 µM | HOP-18 39.5 µM | KM-20L2 > 100 µM | RXF 631 > 100 µM | SNB-78 > 100 µM | XF498 > 100 µM

NC(CCc1ncc(C(=O)O)s1)C(=O)O (configuration not stated)
inactive: DLD-1 > 100 µM | DMS-114 > 100 µM | HOP-18 > 100 µM | RXF 631 > 100 µM | SNB-78 > 100 µM

CCOC(=O)N1CCc2cc(OC)c(OC)cc2/C1=C\c1ccc(OC)c(OC)c1
inactive: DLD-1 37 µM | DMS-114 35.3 µM | HOP-18 29.5 µM | KM-20L2 21.2 µM | SNB-78 35.7 µM | XF498 > 10 µM

O=C(/C(=N/Nc1ccccc1)c1ccc([N+](=O)[O-])cc1)c1ccc([N+](=O)[O-])cc1
inactive: DLD-1 > 100 µM | DMS-114 > 100 µM | HOP-18 > 100 µM | KM-20L2 > 100 µM | SNB-78 > 100 µM | XF498 > 100 µM

COc1ccc2c(C3(O)CCNCC3)c[nH]c2c1
inactive: DLD-1 > 100 µM | HOP-18 > 100 µM | KM-20L2 > 100 µM | RXF 631 > 100 µM

CC1CN(C(=O)CN2CCC(CCCCN(C)C)CC2)c2ccccc2NC1=O (configuration not stated)
inactive: DLD-1 > 100 µM | DMS-114 > 100 µM | HOP-18 > 100 µM | KM-20L2 > 100 µM | RXF 631 > 100 µM

Cc1cccc(NC(=O)/C=C/c2ccc(N(CCC#N)CCC#N)cc2C)c1
inactive: DLD-1 > 100 µM | DMS-114 49.9 µM | KM-20L2 > 100 µM | RXF 631 > 100 µM | XF498 > 100 µM

CCCCCCCCCCCc1noc2c1C(=O)C(O)CC2 (configuration not stated)
inactive: KM-20L2 17.2 µM | RXF 631 17.6 µM | SNB-78 24.4 µM | XF498 13.6 µM

CCCCN(CCCC)C(=O)C(=O)CC(=O)/C=C/c1ccccc1
inactive: DLD-1 > 100 µM | DMS-114 > 100 µM | HOP-18 > 100 µM | KM-20L2 > 100 µM | RXF 631 > 100 µM | SNB-78 > 100 µM

CC1(C)CCc2cc3c(cc2O1)OCCC3=O
inactive: DLD-1 > 100 µM | DMS-114 70 µM | HOP-18 > 100 µM | KM-20L2 > 100 µM | RXF 631 > 100 µM | XF498 > 100 µM

COc1ccc(C2=Nc3ccccc3SC(C)C2)cc1OC (configuration not stated)
inactive: DMS-114 19.4 µM | HOP-18 > 10 µM | KM-20L2 18.8 µM | RXF 631 42.2 µM | SNB-78 27.4 µM | XF498 18.2 µM

CCCCCCCCCCCCCCCC(=O)OCC1OC(OC)C2NP(=O)(N(CCCl)CCCl)OC1C2O (configuration not stated)
inactive: BT-549 2.3 µM | DLD-1 2.7 µM | DMS-114 1.54 µM | HOP-18 8.53 µM | KM-20L2 15.8 µM | RXF 631 6.89 µM | SNB-78 3.3 µM | XF498 2.31 µM

CCOc1ccc(NC(=O)/C(=C\c2ccc(C)cc2)C(C)=O)cc1
inactive: DLD-1 > 100 µM | DMS-114 > 100 µM | HOP-18 > 100 µM | KM-20L2 > 100 µM | RXF 631 > 100 µM | SNB-78 > 100 µM

CC(C)C.C[N+](C)(C)C.OC(c1ccccc1)(C(F)(F)F)C(F)(F)F.OC(c1ccccc1)(C(F)(F)F)C(F)(F)F.[SiH3-]
inactive: DLD-1 2.77 µM | DMS-114 7.16 µM | HOP-18 4.16 µM | KM-20L2 2.29 µM | RXF 631 2.58 µM | SNB-78 10.3 µM | XF498 11.9 µM

CC1(O)C(C)(O)C(C)(O)C1(C)O (configuration not stated)
inactive: DLD-1 > 100 µM | DMS-114 > 100 µM | HOP-18 > 100 µM | KM-20L2 > 100 µM | SNB-78 > 100 µM | XF498 > 100 µM
